From US10246455B2, “Histone deacetylase inhibitors” (Taipei Medical University, priority 2014, dated 2019) come the findings set out here.

The target of one test is HDAC6 (Homo sapiens, UniProt Q9UBN7). Kind of test: Deacetylase enzyme assay (fluorescence release): HDAC6. Format: biochemical. The settings on record: 24-hour study. From the text: (§1) Proteins from cells were extracted and subjected to the western blotting analysis. β-Actin was used as an internal control. The deacetylase enzyme assay was based on a homogeneous fluorescence release assay. […] After fluorophore from the deacetylated substrates, fluorescent signal was detected.

Another test relates to OECM-1 (oral carcinoma). The test is described as follows: IC50 against human cancer cell lines: OECM-1. Particulars: OECM1, read-out: IC50 ± SD against human cancer cell lines.
The test system of the next test is BJAB (B cell lymphoma). The test is described as follows: IC50 against human cancer cell lines: BJAB. The settings on record: read-out: IC50 ± SD against human cancer cell lines.
Test [1] relates to DU-145 (prostate carcinoma). The test is described as follows: IC50 against human cancer cell lines: DU-145. Particulars: DU-145, read-out: IC50 ± SD against human cancer cell lines.
Procedure: (§3) More specifically, the IC50 values of test compounds were determined by carrying out a fluorimetric histone deacetylase assay following the manufacturer's instructions. For a pan-HDAC assay, HeLa nuclear extracts were used as a source of histone deacetylase (BioVision Inc.). Histone deacetylase isomer inhibition assays were conducted using purified recombinant histone deacetylase proteins of the various isomers (BPS Bioscience Inc.). Reactions were performed in 0.1 mol/L KCl, 20 mmol/L HEPES/NaOH at pH 7.9, 20% glycerol, 0.2 mmol/L DTA, 0.5 mmol/L DTT, and 0.5 mmol/L phenylmethylsulfonylfluoride. […] Reactions were carried out in triplicate for each test compound. Each point represented the mean±SD of replicates.
Test [2] relates to histone and α-tubulin acetylation in MDA-MD-231 breast carcinoma. Kind of test: Western blot: acetylation in MDA-MD-231 cells. It is filed as cell-based, human. Here is the method:
(§2) More specifically, cells in the logarithmic phase were initially seeded at a density of 1×10^6 in 100 mm^2 dishes. […] Briefly, cells were lysed with the cell lysis reagent CelLytic™ M (Sigma-Aldrich) containing 1 mM DTT, 1 mM PMSF and protease inhibitors for whole-cell lysate preparation. Equal amounts of lysate (on a protein basis) were then differentiated using the SDS-PAGE, blotted on PVDF membranes, conjugated with various specific primary antibodies, and then probed with appropriate secondary antibodies. The immunoreactive bands were detected using the ECL method and visualized on Kodak Bio-MAX MR film.
as §1
(A western blot detects proteins with antibodies after separation by electrophoresis.)

Test [3] concerns histone and α-tubulin acetylation in human BJAB B cell lymphoma. The test is described as follows: Western blot: acetylation in BJAB cells. It is filed as cell-based. Here is the method: as §2, §1
The target in the next test is HDAC 1 (Homo sapiens, UniProt Q13547). The test is described as follows: Deacetylase enzyme assay (fluorescence release): HDAC1. Format: biochemical. Particulars: 24-hour study.
Source text: as §1

The subject of test [4] is LNCaP-R2 (prostate carcinoma). Kind of test: IC50 against human cancer cell lines: LNCaP-R2. The settings on record: read-out: IC50 ± SD against human cancer cell lines.
The test system of another test is SCC15 (tongue carcinoma). Kind of test: IC50 against human cancer cell lines: SCC15. The settings on record: SCC-15, read-out: IC50 ± SD against human cancer cell lines.
In test [5] the test system is LNCaP-R1 (prostate carcinoma). Kind of test: IC50 against human cancer cell lines: LNCaP-R1. The settings on record: read-out: IC50 ± SD against human cancer cell lines.
Procedure: as §3
Test [6] deals with RWPE-1 (normal: prostate). Kind of test: IC50 against cell lines: RWPE-1. Particulars: Homo sapiens, RWPE-1, read-out: IC50 ± SD against human cancer cell lines.
The subject of test [7] is human glioblastoma (U87MG or GBM8401) cells. The test is described as follows: Cell viability in human glioblastoma in vitro (MTT). Particulars: U-87 MG, U87MG or GBM8401, 30 uM, read-out: reduction of the cell viability. Format: cell-based. Here is the method:
U87MG human glioblastoma cell line was treated with Compound 7 and analyzed following the procedure described below.
Cell viability was assessed by an MTT assay. Briefly, cells were incubated with 0.25 mg/mL MTT (Sigma) at 37° C. for 1 hour and the MTT fomazan were measured spectrophotometrically (μQuant, Bio-Tek) at 595 nm after dissolution of the crystals in DMSO.

The test system of test [8] is A549 (non-small-cell lung carcinoma). The test is described as follows: IC50 in human cancer cell lines (inhibiting HDAC): A549. Particulars: Homo sapiens, A549, read-out: IC50, inhibiting HDAC in human cancer cell lines.
For a further test, the system named is HDAC1-10. The test is described as follows: SDS-PAGE and western blot analysis: HDAC1-10 in PC3 cells. Format: cell-based, human. Particulars: 48 hours. The procedure: More specifically, cells in the logarithmic phase were initially seeded at a density of 1×10^6 in 100 mm^2 dishes. […] IC50 indicia of compound in vitro potency) for the indicated times (i.e., 24 and 48 hours), adherent cells were collected for protein extract preparation. Briefly, cells were lysed with the cell lysis reagent CelLytic™ M (Sigma-Aldrich) containing 1 mM DTT, 1 mM PMSF and protease inhibitors for whole-cell lysate preparation. Equal amounts of lysate (on a protein basis) were then differentiated using the SDS-PAGE, blotted on PVDF membranes, conjugated with various specific primary antibodies, and then probed with appropriate secondary antibodies. The immunoreactive bands were detected using the ECL method and visualized on Kodak Bio-MAX MR film. Proteins from cells were extracted and subjected to the western blotting analysis. β-Actin was used as an internal control. The deacetylase enzyme assay was based on a homogeneous fluorescence release assay. […] After fluorophore from the deacetylated substrates, fluorescent signal was detected.

In another test the test system is C6 glioma cell line. Kind of test: Cell proliferation in C6 glioma in vitro (MTT). Particulars: rat C6 glioma. Format: cell-based. From the text:
C6 glioma cell line was obtained from American Type Culture Collection.

Bounds are passed on as bounds.

As a reminder, the IC50 is the concentration needed to halve the response being measured. As a reminder, the inhibition is the drop in the measured response relative to a control, in per cent.

Chain of HDAC 1 (Q13547 whole entry, species assumed): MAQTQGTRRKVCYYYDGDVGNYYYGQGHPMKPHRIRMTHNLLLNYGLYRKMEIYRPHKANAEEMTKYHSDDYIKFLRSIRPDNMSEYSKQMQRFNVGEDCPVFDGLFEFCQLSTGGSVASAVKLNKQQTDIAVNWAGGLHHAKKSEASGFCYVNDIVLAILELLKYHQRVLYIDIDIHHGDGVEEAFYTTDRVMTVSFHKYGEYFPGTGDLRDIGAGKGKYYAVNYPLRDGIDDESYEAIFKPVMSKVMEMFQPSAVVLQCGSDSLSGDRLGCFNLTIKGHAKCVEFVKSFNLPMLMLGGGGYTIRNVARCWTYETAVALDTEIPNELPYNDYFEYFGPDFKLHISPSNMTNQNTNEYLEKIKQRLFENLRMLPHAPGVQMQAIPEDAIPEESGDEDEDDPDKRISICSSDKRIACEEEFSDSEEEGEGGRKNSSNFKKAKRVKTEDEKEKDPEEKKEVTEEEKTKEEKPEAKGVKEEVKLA
Chain of HDAC6 (Q9UBN7 whole entry, species assumed): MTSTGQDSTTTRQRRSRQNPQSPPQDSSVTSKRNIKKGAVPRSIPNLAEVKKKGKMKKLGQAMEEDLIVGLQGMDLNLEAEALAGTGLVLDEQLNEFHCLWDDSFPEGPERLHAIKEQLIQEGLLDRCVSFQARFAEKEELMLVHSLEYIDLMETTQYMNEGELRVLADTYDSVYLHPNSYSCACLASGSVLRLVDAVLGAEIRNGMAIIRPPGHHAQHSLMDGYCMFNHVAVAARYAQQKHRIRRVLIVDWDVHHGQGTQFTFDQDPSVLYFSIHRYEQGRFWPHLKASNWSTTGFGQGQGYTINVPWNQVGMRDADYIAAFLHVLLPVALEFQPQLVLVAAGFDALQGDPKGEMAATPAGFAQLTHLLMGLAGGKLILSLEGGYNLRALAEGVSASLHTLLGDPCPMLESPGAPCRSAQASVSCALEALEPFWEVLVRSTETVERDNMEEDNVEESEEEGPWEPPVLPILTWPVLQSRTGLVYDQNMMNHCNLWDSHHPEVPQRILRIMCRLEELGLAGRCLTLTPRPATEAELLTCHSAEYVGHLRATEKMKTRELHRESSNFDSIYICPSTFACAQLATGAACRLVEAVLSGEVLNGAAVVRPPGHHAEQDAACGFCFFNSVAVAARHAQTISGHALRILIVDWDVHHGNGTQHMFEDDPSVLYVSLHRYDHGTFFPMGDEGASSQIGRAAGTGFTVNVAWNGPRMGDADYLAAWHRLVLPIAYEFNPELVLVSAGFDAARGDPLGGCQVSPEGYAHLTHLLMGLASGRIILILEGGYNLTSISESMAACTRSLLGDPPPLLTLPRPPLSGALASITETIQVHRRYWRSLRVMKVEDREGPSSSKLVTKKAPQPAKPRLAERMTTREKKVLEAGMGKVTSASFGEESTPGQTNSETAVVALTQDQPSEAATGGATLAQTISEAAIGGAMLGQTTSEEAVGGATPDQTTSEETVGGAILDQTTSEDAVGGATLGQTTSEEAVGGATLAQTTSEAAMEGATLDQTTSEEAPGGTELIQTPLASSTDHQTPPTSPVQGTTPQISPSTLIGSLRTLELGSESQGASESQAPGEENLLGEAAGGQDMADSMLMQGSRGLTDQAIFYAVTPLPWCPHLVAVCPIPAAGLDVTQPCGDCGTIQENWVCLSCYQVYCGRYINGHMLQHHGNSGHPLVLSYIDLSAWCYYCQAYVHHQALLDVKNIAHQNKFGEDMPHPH

On to `COc1ccc(S(=O)(=O)N2CCc3cc(/C=C/C(=O)NO)cnc32)cc1` [Compound 5b, (E)-N-hydroxy-3-(1-(4-methoxyphenylsulfonyl)-2,3-dihydro-1H-pyrrolo[2,3-b]pyridin-5-yl)acrylamide], for which the “concentration inducing inhibition of HDAC6” value at HDAC6 was “about 100 nM”. In addition, the concentration for half-maximal inhibition (IC50) with OECM-1 (oral carcinoma) turned out to be 384 ± 72.1 nM; in the test on BJAB (B cell lymphoma), 161 ± 20.3 nM; in test [1], 90 ± 30 nM; in [4], 100 ± 40 nM; with SCC15 (tongue carcinoma), 176 ± 63.9 nM; in [5], 150 ± 30 nM. Moreover, the IC50 in test [6] turned out to be 240 ± 108 nM. For the same compound, the “histone and α-tubulin acetylation” value in [2] was “induced histone and α-tubulin acetylation”; in test [3], “induced histone and α-tubulin acetylation”. The “concentration inducing inhibition of HDAC 1” value on HDAC 1 is ≤ 50 nM.

In the case of `O=C(/C=C/c1cccc(S(=O)(=O)n2ccc3cccnc32)c1)NO` [Compound 7, (E)-3-(3-(1H-Pyrrolo[2,3-b]pyridin-1-ylsulfonyl)phenyl)-N-hydroxyacrylamide], the cytotoxicity at 30 µM in test [7] was ~70%. Moreover, the half-inhibitory concentration (IC50) in test [8] amounted to 1330 ± 190 nM. The “inhibition of HDAC1-10 activities in PC3 cells” value in the test with HDAC1-10 was “inhibited HDAC1-10 activities in PC3 cells in a concentration-dependent manner”. In addition, the inhibition at 30 µM in the test with C6 glioma cell line is ~50%.
